# From patent publication US20130045940A1, “COMPOSITION COMPRISING AS ACTIVE INGREDIENT L-CARNITINE IN COMBINATION WITH A SOLAR FILTER, FOR THE PREVENTION AND/OR TREATMENT OF PATHOLOGIES OF THE EYE DUE TO ULTRAVIOLET RADIATION” (SIGMA-TAU INDUSTRIE FARMACEUTICHE RIUNITE S.P.A., priority 2010, published 2013)
# What was measured:
# corneal epithelium = experiment: protective effect on the corneal epithelium against UV A/B radiation in rabbits (morphology, TUNEL); assay type: in vivo, rabbit; conditions: for damage to the DNA (TUNEL) / corneal tissue morphology (hematoxylin-eosin): treated left eye after UV exposure; for corneal tissue morphology (hematoxylin-eosin): compared with untreated animals; for EYE LEFT Score (arbitrary scale): treated left eye, instilled every 2 hours for eight hours, then 2091 seconds of UV 290/360 nm, Negative Control = 10, UV-exposed untreated right eye = 1
# Protocol: In all the groups treated (groups 1-4) the right eye acted as a positive control. The following compositions were instilled respectively into the left eye every 2 hours for eight hours:
# Then the animals were exposed for 2091 seconds to UV radiation using a xenon-mercury lamp, 5000 W, 290/360 nm, (Photochem. Photobiol. 1989; 49:175-180) after which the animals were killed and the eyeballs removed and placed in a fixative (4% paraformaldehyde). The cornea was then removed, included in paraffin and then evaluated for its morphological aspects and the cellular degeneration. The morphology was examined by means of hematoxylin-eosin staining whereas the cellular parameters were examined with vital exclusion stains and the TUNEL technique (analysis of DNA fragmentation, by means of terminal transferase, as a consequence of cellular stress) (Arch. Ophthalmol. 1987; 115:1031-1035).
# [1] = system: functional retinal status; experiment: functional retinal status (FERG, mfERG) in subjects with age-related maculopathy, 6 months of eye drops; assay type: in vivo, human; conditions: for amplitudes found with the FERG / mfERG: after 6 months treatment vs before; for SCORE AFTER 6 MONTHS OF TREATMENT (ARBITRARY SCALE): three times a day for 6 months, 0 = no variation respect to time zero, −10 = worsening of the symptoms
# Protocol: In order to evaluate the protective effect of the eye drops being examined on the internal structures of the eye in subjects suffering from age-related maculopathy, the following experimental procedure was carried out. 24 Subjects between 49 and 74 years of age, irrespective of gender, received for 6 months the eye drops of Example 1 (complete composition) three times a day. Subjects were subdivided into 4 equal groups and treated as reported in the following: The functional retinal status of the patients was evaluated using the focal electroretinogram (FERG) and the multifocal electroretinogram (mfERG) methods, before and after 6 months treatment. These two methods are useful for evaluating the electrical activity of the 30° retinal centres (Invest. Ophthalmol. Vis. Sci., 1986; 27: 1123-1130; Eye, 2005; 19:431-441).
# [2] = solubility of 3-HKG in water; assay type: physicochemical; conditions: amount of 0.1 mg/mL (as in WO2008/077712)
solubility in water [2],Compound,damage to the DNA (TUNEL) (corneal epithelium),corneal tissue morphology (hematoxylin-eosin) (corneal epithelium),EYE LEFT Score (arbitrary scale) (corneal epithelium),amplitudes found with the FERG [1],mfERG [1],SCORE AFTER 6 MONTHS OF TREATMENT (ARBITRARY SCALE) [1]
,"C[N+](C)(C)C[C@H](O)CC(=O)[O-] [Group 2, L-carnitine]",no damage to the DNA was seen,tissue appeared damaged,3 arbitrary scale,reduction,significant worsening,−6 arbitrary scale
not (completely) soluble in water,"Nc1c(O[C@@H]2O[C@H](CO)[C@@H](O)[C@H](O)[C@H]2O)cccc1C(=O)CC(N)C(=O)O (mixture of isomers) [Group 3, 3-Hydroxykynurenine O-β-DL-glucoside]",no damage to the DNA was seen,tissue appeared damaged although this was not very apparent,4 arbitrary scale,substantial stability,significant worsening,−4 arbitrary scale
